Measured values as given in patent publication US20050037450A1, “Novel targets for lithium therapy” (Duke University, priority 2002, published 2005).
Several values for one entry are separate records, joined by “and”; a condition that tells them apart may be missing. Identical values can stand only once. Like-named read-outs stand apart in the source and are kept apart here.

Columns and labels:
Type in all cases: cell-based, S. cerevisiae
Wild type yeast = experiment: Lithium inhibition of yeast growth (OD600), wild type; settings: Saccharomyces cerevisiae
Experimental: FIG. 7 is a graph showing met3Δ and met14Δ strains are lithium resistant. Wild type, met3Δ, and met14Δ yeast were resuspended at 5×10^4/ml in CM/ura^− containing 2% dextrose and 1.25 μg/ml methionine. Growth at various concentrations of LiCl was measured after a 24 hr incubation at 30° C. The growth is plotted relative to growth in media lacking lithium.
FIG. 10 is a graph showing methionine supplementation induces lithium resistance. Wild type yeast were inoculated at 5×10^4 cells per ml into synthetic media with or without methionine containing the noted concentration of LiCl. Growth was assayed by spectrophotometry following 48 hrs of growth at 30° C.
Wild type yeast were grown in CM/ura^− containing 2% galactose to mid-log phase. The cultures were washed and resuspended at 5×10^5 cells/ml in CM/ura^−/met^− containing the noted lithium and chlorate concentrations. Following growth for 24 hr at 30° C., the cultures were resuspended, and growth was measured by determining the absorbance at λ=600 nm.
Since methionine effects transcriptional down regulation of the MET3 and MET14 gene products in wild type yeast, the relative lithium sensitivities of the met3Δ and met14Δ strains were assayed in growth media containing reduced methionine (1.25 μg/ml). The use of limited methionine allowed for the comparison of the relative sensitivity to lithium of yeast expressing (wild type) or lacking (met3Δ and met14Δ) PAPS synthetase activities.
The yeast system was used to determine if chlorate could be used to effect a relevant decrease in the accumulation of PAP in the presence of lithium. […] The decrease in PAP accumulation was physiologically relevant since chlorate produced a protective effect in the presence of lithium. […] When 25 mM NaClO3 is included in the culture medium, the growth inhibition is abated, with the IC50 increasing to approximately 80 mM LiCl (FIG. 11)

[1] = test system: intracellular PAP in met14Δ cells
Experimental: (§1) Yeast were grown in CM/ura^− containing 2% galactose to mid-log phase. The cultures were washed extensively and resuspended in the CM/ura^−/met^− media with the noted inclusions. PAP was measured using the ligand binding assay described in Experimental Procedures. Intracellular PAP concentrations were normalized to the amount of soluble protein extracted from the cultures.
(§2) For the assay of intracellular PAP concentrations, appropriate yeast strains were grown in CM/ura^− to mid-log phase (OD600=1.0). The cells were centrifuged and washed extensively in sterile water. The cells were resuspended in CM/ura^−/met^− containing methionine (20 μg/ml), lithium, or chlorate as appropriate. The cultures were incubated with shaking at 30° C. At various time points, 2 ml of culture was removed and centrifuged. The cells were washed with 1 ml of water. 250 μl was centrifuged and resuspended in 200 μl K-lysis buffer. 200 μl of glass beads were added, and the cells were disrupted by vigorous bead beating. The amount of soluble protein in this extract was determined using a Bradford dye-binding assay (BioRad, Hercules, Calif., United States of America) with bovine serum albumin as a standard. The remaining 750 μl of washed cells was spun down and resuspended in 250 μl of 2 N HClO4. This was incubated at 4° C. for 20 min, when 250 μl of 1.8 N KOH, 0.4 N KHCO3 were added to neutralize and precipitate the HClO4. The extract was centrifuged at 4° C. to remove the debris, and the supernatant was lyophilized using a rotary evaporator. The dried extracts were frozen at −80° C. for no more than one week prior to use. Extracts were reconstituted in 100 μL of 200 mM HEPES, pH 7.5 and again centrifuged to remove debris. 5′ [^32P] 3′, 5′ PAP was created as described (Spiegelberg, 1999). The GST-PST assay was performed by mixing 10 μL of standard PAP, treated as above, or 10 μL of sample diluted approximately 1:1000 in K-lysis buffer, with 10 μL of radiolabeled PAP (approximately 10,000 CPM). Eighty microliters of a reaction mix containing 100 mM HEPES, pH 7.0, 5 mM DTT, 0.2 mg/ml BSA, and 1 μg of GST-PST were added to start the binding reaction. The reactions were allowed to equilibrate for at least one hour at room temperature. Following incubation, 20 μl of a 50:50 slurry of glutathione sepharose in K-lysis buffer was added. The tubes were incubated with gentle mixing for 10 min at room temperature. The protein with bound PAP was pulled down by centrifugation for 2 min at room temperature. 80 μl of the supernatant, containing free PAP, was removed to a scintillation vial and 200 μl of K-lysis buffer was added to wash the resin. The tubes were centrifuged again and the 200 μl wash was transferred to the original scintillation vials. Radioactivity was determined by adding 5 ml of […] ECONO2™ scintillation fluid (Fisher Scientific, Hampton, N.H., United States of America) and counted in a liquid scintillation counter. The counts were converted to percent isotope bound, and a standard curve was prepared by plotting percent bound vs. the logarithm of the PAP concentration. This standard curve was used to back-calculate the PAP concentration in the unknown samples.
(§3) The GST-PST binding assay was used to determine relative intracellular PAP concentrations in yeast strains grown under various conditions. The PAP concentration determined in the binding assay was normalized to the total soluble protein in parallel extracts, and background was eliminated by reporting only the signal that was sensitive to in vitro degradation by purified recombinant Hal2p. The assay was characterized further by analyzing the intracellular PAP concentration of wild type yeast grown in the presence of lithium.

[2] = test system: intracellular PAP in met3Δ cells
Experimental: as §1, §2, §3

## [Li] [lithium]
Wild type yeast; CM/ura− 2% dextrose, 1.25 μg/ml methionine, 24 hr at 30° C., growth relative to media lacking lithium, read-out: IC50 of lithium for growth inhibition
  IC50: ~40 mM
Wild type yeast; CM/ura−/met−, 24 hr at 30° C., 25 mM NaClO3 in culture medium, read-out: IC50 of LiCl for growth inhibition with chlorate
  IC50: ~80 mM
Wild type yeast; synthetic media without methionine, 48 hrs at 30° C., read-out: IC50 for lithium in met− media
  IC50: ~40 mM
[1]; met14Δ expressing hPAPSS2, 100 mM lithium vs absence of lithium
  Fold increase of PAP concentration: ≥ 65.4 fold
[1]; met14Δ expressing hPAPSS2, 100 mM lithium, eight hours
  Intracellular PAP concentration: ~32.8 nmol/mg and 32.7 nmol/mg
[1]; met14Δ with empty vector, independent of methionine and lithium concentration, data not shown
  Intracellular PAP concentration: less than 0.5 nmol PAP/mg soluble protein
[2]; met3Δ expressing hPAPSS2, 100 mM lithium vs absence of lithium
  Fold increase of PAP concentration: ≥ 72.4 fold
[2]; met3Δ with empty vector, independent of methionine and lithium concentration, data not shown
  Intracellular PAP concentration: less than 0.5 nmol PAP/mg soluble protein
